Experimental data published in US9771343B2, “2-alkyl-or-aryl-substituted tanshinone derivatives, and preparation method and application thereof” (Hangzhou Bensheng Pharmaceutical Co., Ltd., priority 2011, dated 2017).
Converted amounts (≈) assume the structure as drawn.

Experiments:
[1] = tested on: MGC 803 (human gastric cancer cell); experiment: MTT cell growth inhibition, MGC 803 cells, 72 h; format: cell-based
Experimental: (§1) The standard sample of tanshinone I (TA) and the 2-alkyl- or 2-aromatic-substituted tanshinone I derivatives of the present invention are sufficiently dissolved in dimethylsulfoxide to produce a stock solution of 10 mg/mL, which is refrigerated at 4° C. and stored in dark, and is diluted with a cell culture medium to the desired concentration prior to experimentation.
(§2) Obtaining 6000 well-growing human solid tumor cells and inoculating them into wells of a 96-well cell culture plate. The culture medium is DMEM High Glucose cell culture medium containing 10% fetal bovine serum. The plate is placed in a carbon dioxide cell incubator (5% CO2) at 37° C. and incubated for 24 hours. After adding the 2-alkyl- or 2-aromatic-substituted tanshinone I derivatives of different concentrations and mixing uniformly, the plate is placed in a carbon dioxide cell incubator (5% CO2) at 37° C. and incubated for 72 hours. Then the viable cell concentration is determined by MTT method. In this experiment, the cell viability in control group (not treated with any compound) is set as 100%, and the cell viability (%) after treatment by the compounds and the half maximum inhibitory concentration for the leukemia cell at 72 hours (IC50 value of 72 hours, μg/mL) are calculated.

[2] = tested on: Kasumi-1 (acute myeloid leukemia M2 type, AML-M2); experiment: MTT cell growth inhibition, Kasumi-1 leukemia cells, 72 h; format: cell-based; settings: Homo sapiens, Kasumi-1, 72 h
Experimental: as §1, with “with” for “with a”, “to a” for “to the”
as §2, with “leukemia” for “human solid tumor”, “the RPMI-1640” for “DMEM High Glucose”, “serum.” for “serum. The plate is placed in a carbon dioxide cell incubator (5% CO2) at 37° C. and incubated for 24 hours.”, “adding on the second day” for “adding”, “uniformly, placing” for “uniformly,”, “plate” for “plate is placed”

[3] = tested on: U87 MG (malignant glioma cell); experiment: MTT cell growth inhibition, U87 MG cells, 72 h; format: cell-based, human
Experimental: as §1, §2

[4] = tested on: Hela (human cervical cancer cell); experiment: MTT cell growth inhibition, Hela cells, 72 h; format: cell-based
Experimental: as §1, §2

[5] = tested on: CaES-17 (esophageal cancer cell); experiment: MTT cell growth inhibition, CaES-17 cells, 72 h; format: cell-based, human; settings: Homo sapiens, CaEs17, CaEs-17, 72 h
Experimental: as §1, §2

[6] = tested on: H9 (acute lymphoblastic leukemia, ALL); experiment: MTT cell growth inhibition, H9 leukemia cells, 72 h; format: cell-based
Experimental: as §1, with “with” for “with a”, “to a” for “to the”
as §2, with “leukemia” for “human solid tumor”, “the RPMI-1640” for “DMEM High Glucose”, “serum.” for “serum. The plate is placed in a carbon dioxide cell incubator (5% CO2) at 37° C. and incubated for 24 hours.”, “adding on the second day” for “adding”, “uniformly, placing” for “uniformly,”, “plate” for “plate is placed”

[7] = tested on: Becap37 (human breast cancer cell); experiment: MTT cell growth inhibition, Becap37 cells, 72 h; format: cell-based
Experimental: as §1, §2

[8] = tested on: PANC-1 (pancreatic cancer); experiment: MTT cell growth inhibition, PANC-1 cells, 72 h; format: cell-based, human; settings: Homo sapiens, PANC-1, 72 h
Experimental: as §1, §2

[9] = tested on: Jurkat (acute lymphoblastic leukemia, ALL); experiment: MTT cell growth inhibition, Jurkat leukemia cells, 72 h; format: cell-based; settings: Homo sapiens, 72 h
Experimental: as §1, with “with” for “with a”, “to a” for “to the”
as §2, with “leukemia” for “human solid tumor”, “the RPMI-1640” for “DMEM High Glucose”, “serum.” for “serum. The plate is placed in a carbon dioxide cell incubator (5% CO2) at 37° C. and incubated for 24 hours.”, “adding on the second day” for “adding”, “uniformly, placing” for “uniformly,”, “plate” for “plate is placed”

[10] = tested on: CNE (nasopharyngeal carcinoma cell); experiment: MTT cell growth inhibition, CNE cells, 72 h; format: cell-based, human; settings: Homo sapiens, CNE, 72 h
Experimental: as §1, §2

[11] = tested on: SK-OV-3 (ovarian cancer cell); experiment: MTT cell growth inhibition, SK-OV-3 cells, 72 h; format: cell-based, human
Experimental: as §1, §2

[12] = tested on: Hep-2 (laryngeal carcinoma); experiment: MTT cell growth inhibition, Hep-2 cells, 72 h; format: cell-based, human; settings: Homo sapiens, HEp-2, 72 h
Experimental: as §1, §2

A549 (human lung cancer) = experiment: MTT cell growth inhibition, A549 cells, 72 h; format: cell-based; settings: Homo sapiens, A549, 72 h
Experimental: as §1, §2

[13] = tested on: Hep G2 (human liver cancer cell); experiment: MTT cell growth inhibition, Hep G2 cells, 72 h; format: cell-based
Experimental: as §1, §2

MG63 (osteosarcoma) = experiment: MTT cell growth inhibition, MG63 cells, 72 h; format: cell-based, human; settings: Homo sapiens, MG-63, 72 h
Experimental: as §1, §2

[14] = tested on: RPMI8226 (multiple myeloma); experiment: MTT cell growth inhibition, RPMI8226 multiple myeloma cells, 72 h; format: cell-based, human; settings: Homo sapiens, RPMI 8226, 72 h
Experimental: as §1, with “with” for “with a”, “to a” for “to the”
as §2, with “leukemia” for “human solid tumor”, “the RPMI-1640” for “DMEM High Glucose”, “serum.” for “serum. The plate is placed in a carbon dioxide cell incubator (5% CO2) at 37° C. and incubated for 24 hours.”, “adding on the second day” for “adding”, “uniformly, placing” for “uniformly,”, “plate” for “plate is placed”

[15] = tested on: NB4 (acute promyelocytic leukemia, AML); experiment: MTT cell growth inhibition, NB4 leukemia cells, 72 h; format: cell-based
Experimental: as §1, with “with” for “with a”, “to a” for “to the”
as §2, with “leukemia” for “human solid tumor”, “the RPMI-1640” for “DMEM High Glucose”, “serum.” for “serum. The plate is placed in a carbon dioxide cell incubator (5% CO2) at 37° C. and incubated for 24 hours.”, “adding on the second day” for “adding”, “uniformly, placing” for “uniformly,”, “plate” for “plate is placed”

[16] = tested on: K562/adr (drug-resistant, chronic myeloid leukemia, CML); experiment: MTT cell growth inhibition, K562/adr leukemia cells, 72 h; format: cell-based; settings: Homo sapiens, K562/Adr
Experimental: as §1, with “with” for “with a”, “to a” for “to the”
as §2, with “leukemia” for “human solid tumor”, “the RPMI-1640” for “DMEM High Glucose”, “serum.” for “serum. The plate is placed in a carbon dioxide cell incubator (5% CO2) at 37° C. and incubated for 24 hours.”, “adding on the second day” for “adding”, “uniformly, placing” for “uniformly,”, “plate” for “plate is placed”

PC-3 (prostate cancer) = experiment: MTT cell growth inhibition, PC-3 cells, 72 h; format: cell-based, human
Experimental: as §1, §2

[17] = tested on: RKO (human colon adenocarcinoma cell); experiment: MTT cell growth inhibition, RKO cells, 72 h; format: cell-based
Experimental: as §1, §2

- IC50 ([1]; Homo sapiens, MGC-803, 72 h, read-out: IC50): 0.38 µg/mL (≈ 0.959 µM)
- IC90 ([1]; Homo sapiens, MGC-803, 72 h, read-out: IC90): 3.3 µg/mL (≈ 8.32 µM)
- IC50 ([2]; read-out: IC50): 3.85 µg/mL (≈ 9.71 µM)
- IC90 ([2]; read-out: IC90): 17.5 µg/mL (≈ 44.1 µM)
- IC50 ([3]; Homo sapiens, U-87 MG, U87-MG, 72 h, read-out: IC50): 0.5 µg/mL (≈ 1.26 µM)
- IC90 ([3]; Homo sapiens, U-87 MG, U87-MG, 72 h, read-out: IC90): > 16 µg/mL
- IC50 ([4]; Homo sapiens, HeLa, 72 h, read-out: IC50): 0.5 µg/mL (≈ 1.26 µM)
- IC90 ([4]; Homo sapiens, HeLa, 72 h, read-out: IC90): 16 µg/mL (≈ 40.4 µM)
- IC50 ([5]; read-out: IC50): 6.83 µg/mL (≈ 17.2 µM)
- IC90 ([5]; read-out: IC90): > 16 µg/mL
- IC50 ([6]; H9, 72 h, read-out: IC50): 0.7 µg/mL (≈ 1.77 µM)
- IC90 ([6]; H9, 72 h, read-out: IC90): 1.98 µg/mL (≈ 4.99 µM)
- IC50 ([7]; Homo sapiens, Becap-37, 72 h, read-out: IC50): 1.28 µg/mL (≈ 3.23 µM)
- IC90 ([7]; Homo sapiens, Becap-37, 72 h, read-out: IC90): > 16 µg/mL
- IC50 ([8]; read-out: IC50): 5.48 µg/mL (≈ 13.8 µM)
- IC90 ([8]; read-out: IC90): > 16 µg/mL
- IC50 ([9]; read-out: IC50): 0.84 µg/mL (≈ 2.12 µM)
- IC90 ([9]; read-out: IC90): > 16 µg/mL
- IC50 ([10]; read-out: IC50): 15 µg/mL (≈ 37.8 µM)
- IC90 ([10]; read-out: IC90): > 16 µg/mL
- IC50 ([11]; Homo sapiens, SK-OV-3, 72 h, read-out: IC50): 11.1 µg/mL (≈ 28 µM)
- IC90 ([11]; Homo sapiens, SK-OV-3, 72 h, read-out: IC90): > 16 µg/mL
- IC50 ([12]; read-out: IC50): 8 µg/mL (≈ 20.2 µM)
- IC90 ([12]; read-out: IC90): > 16 µg/mL
- IC50 (A549 (human lung cancer); read-out: IC50): 16.6 µg/mL (≈ 41.9 µM)
- IC90 (A549 (human lung cancer); read-out: IC90): > 16 µg/mL
- IC50 ([13]; Homo sapiens, HepG2, Hep G2, 72 h, read-out: IC50): 1.94 µg/mL (≈ 4.89 µM)
- IC90 ([13]; Homo sapiens, HepG2, Hep G2, 72 h, read-out: IC90): > 16 µg/mL
- IC50 (MG63 (osteosarcoma); read-out: IC50): 1.05 µg/mL (≈ 2.65 µM)
- IC90 (MG63 (osteosarcoma); read-out: IC90): > 16 µg/mL
- IC50 ([14]; read-out: IC50): 1 µg/mL (≈ 2.52 µM)
- IC90 ([14]; read-out: IC90): 16.6 µg/mL (≈ 41.8 µM)
- IC50 ([15]; NB4, 72 h, read-out: IC50): 0.2 µg/mL (≈ 0.505 µM)
- IC90 ([15]; NB4, 72 h, read-out: IC90): 1 µg/mL (≈ 2.52 µM)
- IC50 ([16]; read-out: IC50): 1.08 µg/mL (≈ 2.72 µM)
- IC90 ([16]; read-out: IC90): 3.6 µg/mL (≈ 9.08 µM)
- IC50 (PC-3 (prostate cancer); Homo sapiens, PC-3, 72 h, read-out: IC50): 6.49 µg/mL (≈ 16.4 µM)
- IC90 (PC-3 (prostate cancer); Homo sapiens, PC-3, 72 h, read-out: IC90): > 16 µg/mL
- IC50 ([17]; Homo sapiens, RKO, 72 h, read-out: IC50): 1.53 µg/mL (≈ 3.86 µM)
- IC90 ([17]; Homo sapiens, RKO, 72 h, read-out: IC90): > 16 µg/mL
SMILES: Cc1c(-c2ccc(C(=O)O)cc2)oc2c1C(=O)C(=O)c1c-2ccc2c(C)cccc12 [BS-TA-302]
- anti-MGC 803 activity (in words) ([1]; Table 2): significantly improves
- anti-U87 MG activity (in words) ([3]; Table 2): superior to that of tanshinone I per se
- anti-Hela activity (in words) ([4]; Table 2): superior to that of tanshinone I per se
- improvement of anti-H9 activity as compared with tanshinone I per se ([6]; H9, vs tanshinone I): ~5 fold
- anti-Becap37 activity (in words) ([7]; Table 2): superior to that of tanshinone I per se
- anti-SK-OV-3 activity (in words) ([11]; Table 2): superior to that of tanshinone I per se
- anti-Hep G2 activity (in words) ([13]; Table 2): superior to that of tanshinone I per se
- improvement of anti-NB4 activity as compared with tanshinone I per se ([15]; NB4, vs tanshinone I): ~5 fold
- anti-PC-3 activity (in words) (PC-3 (prostate cancer); Table 2): significantly improves
- anti-RKO activity (in words) ([17]; Table 2): superior to that of tanshinone I per se
